Test results as given in patent US5676931A, “Aerosol drug formulations for use with non CFC propellants” (Abbott Laboratories, priority 1996, dated 1997).
Read-outs that look alike come from different tables or passages of the source.

Assay: Biodistribution of SLS MDI formulation: drug concentrations in lung and blood (Table 5)
Type: in vivo, male Sprague-Dawley rats
Conditions: rats
Method: A SLS (sodium lauryl sulfate) MDI formulation was tested in the following biodistribution study. One group of 13 male Sprague-Dawley rats, weighing 400 to 500 grams was used. This group of animals was dosed with a sodium lauryl sulfate-based R(+)-N-[3-[5-(4-fluorophenoxy)-2-furanyl]-1-methyl-2-propynyl]-N-hydroxyurea MDI formulation. Blood samples were collected at 0.083, 0.25, 0.5, 1, 2, 4 and 6 hours after dosing. One animal in each group was sacrificed at 0.25, 0.5, 1, 2, 4 and 6 hours after dosing for the determination of drug concentrations in the lung.

## C[C@H](C#Cc1ccc(Oc2ccc(F)cc2)o1)N(O)C(N)=O [R(+)-N-[3-[5-(4-fluorophenoxy)-2-furanyl]-1-methyl-2-propynyl]-N-hydroxyurea]
MDI formulations in HFA-134a
  reproducibility of delivery: reproducibly delivered
SLS MDI, lung, time 0 hr, footnote c
  fraction of theoretically delivered drug (lung): 26.7%
SLS-based MDI
  drug concentration recovered from the lung following delivery: about 67 μg/g
rat, blood, inhaled or intranasal, SLS MDI 10 mg/mL drug, 0.3% SLS in HFA134a, 0.083 hr (n = 12)
  concentration at 0.083 h: 110 ± 80 ng/mL
rat, blood, inhaled or intranasal, SLS MDI 10 mg/mL drug, 0.3% SLS in HFA134a, 0.25 hr (n = 12), read-out: Concentrations of Drug, Blood
  concentration at 0.25 h: 140 ± 70 ng/mL
rat, blood, inhaled or intranasal, SLS MDI 10 mg/mL drug, 0.3% SLS in HFA134a, 0.5 hr (n = 9), read-out: Concentrations of Drug, Blood
  concentration at 0.5 h: 180 ± 80 ng/mL
rat, blood, inhaled or intranasal, SLS MDI 10 mg/mL drug, 0.3% SLS in HFA134a, 1.0 hr (n = 8), read-out: Concentrations of Drug, Blood
  concentration at 1 h: 180 ± 60 ng/mL
rat, blood, inhaled or intranasal, SLS MDI 10 mg/mL drug, 0.3% SLS in HFA134a, 2.0 hr (n = 6), read-out: Concentrations of Drug, Blood
  concentration at 2 h: 150 ± 60 ng/mL
rat, blood, inhaled or intranasal, SLS MDI 10 mg/mL drug, 0.3% SLS in HFA134a, 4.0 hr (n = 4), read-out: Concentrations of Drug, Blood
  concentration at 4 h: 200 ± 40 ng/mL
rat, blood, inhaled or intranasal, SLS MDI 10 mg/mL drug, 0.3% SLS in HFA134a, 6.0 hr (n = 2), read-out: Concentrations of Drug, Blood
  concentration at 6 h: 280 ± 270 ng/mL
rat, lung, inhaled or intranasal, SLS MDI 10 mg/mL drug, 0.3% SLS in HFA134a, 0.25 hr, read-out: Concentrations of Drug, Lung
  concentration at 0.25 h: 14500 ± 6330 ng/g
rat, lung, inhaled or intranasal, SLS MDI 10 mg/mL drug, 0.3% SLS in HFA134a, 0.5 hr, read-out: Concentrations of Drug, Lung
  concentration at 0.5 h: 12100 ± 4720 ng/g
rat, lung, inhaled or intranasal, SLS MDI 10 mg/mL drug, 0.3% SLS in HFA134a, 1.0 hr, read-out: Concentrations of Drug, Lung
  concentration at 1 h: 13100 ± 15700 ng/g
rat, lung, inhaled or intranasal, SLS MDI 10 mg/mL drug, 0.3% SLS in HFA134a, 2.0 hr, read-out: Concentrations of Drug, Lung
  concentration at 2 h: 16600 ± 13000 ng/g
rat, lung, inhaled or intranasal, SLS MDI 10 mg/mL drug, 0.3% SLS in HFA134a, 4.0 hr, read-out: Concentrations of Drug, Lung
  concentration at 4 h: 8540 ± 3100 ng/g
rat, lung, inhaled or intranasal, SLS MDI 10 mg/mL drug, 0.3% SLS in HFA134a, 6.0 hr, read-out: Concentrations of Drug, Lung
  concentration at 6 h: 9850 ± 2910 ng/g
SLS MDI 10 mg/mL drug, 0.3% SLS in HFA134a, 0 hr
  Concentrations of Drug, Lung: 66.74 µg/g
